From patent US7569568B2, “Cytokine inhibitors” (Boehringer Ingelheim Pharmaceuticals, Inc., priority 2002, dated 2009)

Which melting point does the source give for `COc1c(NC(=O)c2cc(C)c(C)c(-n3cc(C(=O)NCCN4CCOCC4)nn3)c2)cc(C(C)(C)C)cc1NS(C)(=O)=O` [Example 28, 1-[5-(5-tert-butyl-3-methanesulfonylamino-2-methoxy-phenylcarbamoyl)-2,3-dimethyl-phenyl]-1H-1,2,3-triazole-4-carboxylic acid (2-morpholin-4-yl-ethyl)-amide] here?
Its melting point is 206 to 209 °C (dec.).

Which melting point does the source give for `COC(=O)c1cn(-c2cc(C(=O)Nc3cc(C(C)(C)C)cc(NS(C)(=O)=O)c3OC)cc(C)c2C)nn1` [Example 16, 1-[5-(5-tert-butyl-3-methanesulfonylamino-2-methoxy-phenylcarbamoyl)-2,3-dimethyl-phenyl]-1H-1,2,3-triazole-4-carboxylic acid methyl ester] here?
The melting point was 199 °C.

With `COC(=O)c1cn(-c2cc(C(=O)Nc3cc(C(C)(C)C)cc(NS(C)(=O)=O)c3OC)ccc2C)nn1` [Example 1, 1-[5-(5-tert-butyl-3-methanesulfonylamino-2-methoxy-phenylcarbamoyl)-2-methyl-phenyl]-1H-1,2,3-triazole-4-carboxylic acid methyl ester] as the compound, how does the melting point read?
The melting point was 198 °C.

For `COC(=O)c1nnn(-c2cc(C(=O)Nc3cc(C(C)(C)C)cc(NS(C)(=O)=O)c3OC)ccc2C)c1N` [Example 9, 5-amino-1-[5-(5-tert-butyl-3-methanesulfonylamino-2-methoxy-phenylcarbamoyl)-2-methyl-phenyl]-1H-1,2,3-triazole-4-carboxylic acid methyl ester], which melting point is on record?
Its melting point is 204 to 205 °C.

For `COc1c(NC(=O)c2ccc(C)c(-n3cc(C(N)=O)nn3)c2)cc(C(C)(C)C)cc1NS(C)(=O)=O` [Example 66, 1-[5-(5-tert-butyl-3-methanesulfonylamino-2-methoxyphenyl-carbamoyl)-2-methyl-phenyl]-1H-1,2,3-triazole-4-carboxylic acid amide], which melting point is on record?
The melting point was over 250 °C.

With `COC(=O)c1cn(-c2cc(C(=O)Nc3cc(C(C)(C)C)cc(NS(C)(=O)=O)c3OC)ccc2Cl)nn1` [Example 8, 1-[5-(5-tert-butyl-3-methanesulfonylamino-2-methoxyphenyl-carbamoyl)-2-chloro-phenyl]-1H-1,2,3-triazole-4-carboxylic acid methyl ester] as the compound, how does the melting point read?
Its melting point is 251 to 252 °C (dec.).

Which melting point does the source give for `COc1c(NC(=O)c2ccc(C)c(-n3cc(C(=O)NCc4ccccc4)nn3)c2)cc(C(C)(C)C)cc1NS(C)(=O)=O` [Example 24, 1-[5-(5-tert-butyl-3-methanesulfonylamino-2-methoxy-phenylcarbamoyl)-2-methyl-phenyl]-1H-1,2,3-triazole-4-carboxylic acid benzylamide] here?
The melting point was 205 to 207 °C.

With `COc1c(NC(=O)c2ccc(C)c(-n3nnc(C(=O)NCC(C)(C)C)c3N)c2)cc(C(C)(C)C)cc1NS(C)(=O)=O` [Example 68, 5-amino-1-[5-(5-tert-butyl-3-methanesulfonylamino-2-methoxy-phenylcarbamoyl)-2-methyl-phenyl]-1H-1,2,3-triazole-4-carboxylic acid (2,2-dimethyl-propyl)-amide] as the compound, how does the melting point read?
The melting point was 189 to 193 °C.
